Data published in patent publication US20220033448A1, “METHODS FOR AGGREGATION OF PROTEINS” (priority 2011, published 2022).
In brackets after ≈: the same amount, converted by molar mass. Non-standard residues stand in square brackets, D forms with d. Residues, ends and D or L forms follow the SMILES beside them. No end group written: not given here. PEG3 = NCCOCCOCCOCCC(=O)O; AEEA = NCCOCCOCC(=O)O

Experiments:
Klebsiella pneumoniae = assay type: cell-based
[1] = test system: Salmonella typhi ATCC14028; assay type: cell-based
human erythrocytes = assay type: cell-based
From the text: The detergent Tween was used as a positive control, causing 100% lysis of RBCs.

Description for B. cereus: (§1) Bacteria were grown in a shaking incubator at 37° C. and 160rpm in 50 ml BHI , using individual colonies retrieved from a fresh overnight TSA-sheep blood plate. The cultures were grown to a density of approximately 1×10^8cells/ml and then diluted to 5×10^5 cells/ml in CAMHB (Mc Farland 0.5). Each well contained 100p.I (50p.I of peptide containing MHB plus 50 μl inoculum). The final cell density was 1×10^5 to 5×10^5/ml. After addition of the cell suspension, plates were incubated at 37° C. for 18 to 24 hours. The optical density at 590 nm (OD590) of each well was measured after 5 seconds of shaking the plate using Perkin Elmer spectrophotometer (1420 Multilabel Counter Vicotr 3). […] Each well, where no growth was observed, was also plated on TSA-sheep blood agar plates, incubated at 37° C. overnight and visually inspected.
(§2) A microbroth dilution method was used with twofold serial dilutions in CAMHB (according to EMEA guidelines) was used for screening of peptide activity, with concentrations ranging from 0.3 μg/mIto 200 μg/ml.
Description for Corynebacterium: as §1, §2
Description for E. coli: as §1, §2
Description for E. faecalis: as §1, §2
Description for Nocardia asteroides: as §1, §2
Description for S. aureus: as §1, §2
Description for S. epidermidis: as §1, §2
Description for S. hominis: as §1, §2

Compound	Minimum inhibitory concentrations MIC90 (B. cereus) [µg/mL]	Minimum inhibitory concentrations MIC90 (S. hominis) [µg/mL]	Minimum inhibitory concentrations MIC90 (E. coli) [µg/mL]	Minimum inhibitory concentrations MIC90 (Klebsiella pneumoniae) [µg/mL]	Minimum inhibitory concentrations MIC90 (Nocardia asteroides) [µg/mL]	Minimum inhibitory concentrations MIC90 (S. epidermidis) [µg/mL]	Minimum inhibitory concentrations MIC90 (E. faecalis) [µg/mL]	Minimum inhibitory concentrations MIC90 [1] [µg/mL]	MIC value (S. aureus) [µg/mL]	MIC value (S. epidermidis) [µg/mL]	further results
CC[C@@H](C)[C@@H](NC(=O)[C@H](N)CCCNC(=N)N)C(=O)N[C@H](CC(C)C)C(=O)N[C@H](CC(C)C)C(=O)NCC(=O)N[C@H](CC(C)C)C(=O)N[C@@H](C(=O)N[C@H](CCCNC(=N)N)C(=O)N[C@H](CCCNC(=N)N)C(=O)NCC(=O)N[C@H](CO)C(=O)N[C@H](CCCNC(=N)N)C(=O)N[C@@H](C(=O)N[C@H](CC(C)C)C(=O)N[C@H](CC(C)C)C(=O)NCC(=O)N[C@H](CC(C)C)C(=O)N[C@@H](C(=O)N[C@H](CCCNC(=N)N)C(=O)N[C@H](CCCNC(=N)N)C(=O)O)[C@H](C)CC)[C@H](C)CC)[C@H](C)CC [DAA] (H-[dR][dI][dL][dL]G[dL][dI][dR][dR]G[dS][dR][dI][dL][dL]G[dL][dI][dR][dR]-OH; N-terminus and C-terminus assumed)	6 (≈ 2.56 µM)	1.5 (≈ 0.64 µM)	25 (≈ 10.7 µM)	25 (≈ 10.7 µM)	>200	1.5 (≈ 0.64 µM)	6 (≈ 2.56 µM)	100 (≈ 42.6 µM)			Minimum inhibitory concentrations MIC90 (Corynebacterium): >200 µg/mL
CC[C@H](C)[C@H](NC(=O)[C@H](CC(C)C)NC(=O)CNC(=O)[C@H](CC(C)C)NC(=O)[C@H](CC(C)C)NC(=O)[C@@H](NC(=O)[C@H](CCCNC(=N)N)NC(=O)[C@H](CO)NC(=O)CNC(=O)[C@H](CCCNC(=N)N)NC(=O)[C@H](CCCNC(=N)N)NC(=O)[C@@H](NC(=O)[C@H](CC(C)C)NC(=O)CNC(=O)[C@H](CC(C)C)NC(=O)[C@H](CC(C)C)NC(=O)[C@@H](NC(=O)[C@H](CCCNC(=N)N)NC(=O)COCCOCCN)[C@@H](C)CC)[C@@H](C)CC)[C@@H](C)CC)C(=O)N[C@@H](CCCNC(=N)N)C(=O)N[C@@H](CCCNC(=N)N)C(=O)O [P2153] (H-[AEEA]RILLGLIRRGSRILLGLIRR-OH)	6 (≈ 2.41 µM)	3 (≈ 1.2 µM)	25 (≈ 10 µM)	50 (≈ 20.1 µM)	6 (≈ 2.41 µM)	12.5 (≈ 5.02 µM)	25 (≈ 10 µM)	>200			
CC[C@H](C)[C@H](NC(=O)[C@H](CC(C)C)NC(=O)CNC(=O)[C@H](CC(C)C)NC(=O)[C@H](CC(C)C)NC(=O)[C@@H](NC(=O)[C@H](CCCNC(=N)N)NC(=O)[C@H](CO)NC(=O)CNC(=O)[C@H](CCCNC(=N)N)NC(=O)[C@H](CCCNC(=N)N)NC(=O)[C@@H](NC(=O)[C@H](CC(C)C)NC(=O)CNC(=O)[C@H](CC(C)C)NC(=O)[C@H](CC(C)C)NC(=O)[C@@H](NC(=O)[C@H](CCCNC(=N)N)NC(=O)CCOCCOCCOCCN)[C@@H](C)CC)[C@@H](C)CC)[C@@H](C)CC)C(=O)N[C@@H](CCCNC(=N)N)C(=O)N[C@@H](CCCNC(=N)N)C(=O)O [P2154] (H-[PEG3]RILLGLIRRGSRILLGLIRR-OH)	12.5 (≈ 4.91 µM)	3 (≈ 1.18 µM)	50 (≈ 19.6 µM)	100 (≈ 39.2 µM)	6 (≈ 2.35 µM)	12.5 (≈ 4.91 µM)	12.5 (≈ 4.91 µM)	>200			
CC[C@H](C)[C@H](NC(=O)[C@H](CC(C)C)NC(=O)CNC(=O)[C@H](CC(C)C)NC(=O)[C@H](CC(C)C)NC(=O)[C@@H](NC(=O)[C@H](CCCNC(=N)N)NC(=O)COCCOCCNC(=O)[C@H](CCCNC(=N)N)NC(=O)[C@H](CCCNC(=N)N)NC(=O)[C@@H](NC(=O)[C@H](CC(C)C)NC(=O)CNC(=O)[C@H](CC(C)C)NC(=O)[C@H](CC(C)C)NC(=O)[C@@H](NC(=O)[C@@H](N)CCCNC(=N)N)[C@@H](C)CC)[C@@H](C)CC)[C@@H](C)CC)C(=O)N[C@@H](CCCNC(=N)N)C(=O)N[C@@H](CCCNC(=N)N)C(N)=O [P2175/P1] (H-RILLGLIRR[AEEA]RILLGLIRR-NH2)	12.5 (≈ 5.33 µM)	3 (≈ 1.28 µM)	25 (≈ 10.7 µM)	50 (≈ 21.3 µM)	3 (≈ 1.28 µM)	12.5 (≈ 5.33 µM)	12.5 (≈ 5.33 µM)	50 (≈ 21.3 µM)			Minimum inhibitory concentrations MIC90 (Corynebacterium): >200 µg/mL
CC[C@H](C)[C@H](NC(=O)[C@H](CC(C)C)NC(=O)CNC(=O)[C@H](CC(C)C)NC(=O)[C@H](CC(C)C)NC(=O)[C@@H](NC(=O)[C@H](CCCNC(=N)N)NC(=O)COCCOCCNC(=O)[C@H](CCCNC(=N)N)NC(=O)[C@H](CCCNC(=N)N)NC(=O)[C@@H](NC(=O)[C@H](CC(C)C)NC(=O)CNC(=O)[C@H](CC(C)C)NC(=O)[C@H](CC(C)C)NC(=O)[C@@H](NC(=O)[C@@H](N)CCCNC(=N)N)[C@@H](C)CC)[C@@H](C)CC)[C@@H](C)CC)C(=O)N[C@@H](CCCNC(=N)N)C(=O)N[C@@H](CCCNC(=N)N)C(N)=O [P2175/P2] (H-RILLGLIRR[AEEA]RILLGLIRR-NH2)	12.5 (≈ 5.33 µM)	1.5 (≈ 0.64 µM)	50 (≈ 21.3 µM)	100 (≈ 42.6 µM)	6 (≈ 2.56 µM)	6 (≈ 2.56 µM)	6 (≈ 2.56 µM)	25 (≈ 10.7 µM)			Minimum inhibitory concentrations MIC90 (Corynebacterium): >200 µg/mL
Ac-RILLGLIRRGSRILLGLIRR-NH2 [P2170/P1]	6	3	25	>200	6	6	12.5	100			Minimum inhibitory concentrations MIC90 (S. aureus): 12.5 µg/mL; Minimum inhibitory concentrations MIC90 (Corynebacterium): >200 µg/mL
Ac-RILLGLIRRGSRILLGLIRR-NH2 [P2170/P2]	6	3	25	>200	3	12.5	12.5	100			Minimum inhibitory concentrations MIC90 (S. aureus): 12.5 µg/mL; Minimum inhibitory concentrations MIC90 (Corynebacterium): 100 µg/mL
H-RILLGLIRRGSRILLGLIRR-OH [P2151]	12.5	3	25	25	12.5	12.5	25	100			
RFFIGLSRRGSRIQAYLYRR [Hit50A]											MIC values against MRSA 326 (S. aureus): 50 µg/mL; MIC values against S.aureus ATCC 29213 (S. aureus): 100 µg/mL; MIC values against B.cereus ATCC (B. cereus): 50 µg/mL
RLFNFLKRGSRLFNFLKR [C29/Hit11]											MIC values against MRSA 326 (S. aureus): 12.5 µg/mL; MIC values against S.aureus ATCC 29213 (S. aureus): 12.5 to 25 µg/mL; MIC values against B.cereus ATCC (B. cereus): 6 to 12.5 µg/mL; MIC values against Corynebacterium (Corynebacterium): 6 µg/mL; hemolytic activity (human erythrocytes): no significant hemolytic activity at clinically relevant concentrations
RRIIGIIARPPRVLVTLLRR [mtop_22]									<200	50	
RRIILFILRPPRLILFLGRR [mtop_1]									200	50	
RRILGLIARPPRIAFVILRR [mtop_18]									<200	50	
RRILLGLIRPPRTIIGLVRR [mtop_11]									>200	12.5	
RRILLLIARPPRILLGAIRR [mtop_12]									>200	12.5	
RRLLGLIIRPPRAIALTLRR [mtop_17]									50	100	
RRWVSMLLRRGSRWVSMLLRR [Hit14]											MIC values against B.cereus ATCC (B. cereus): 100 µg/mL; MIC values against S.epidermidis ATCC 12228 (S. epidermidis): 50 µg/mL
RWVSMLLRRGSRVGYVIARR [Hit37]											MIC values against MRSA 326 (S. aureus): 100 µg/mL; MIC values against S.aureus ATCC 29213 (S. aureus): 100 µg/mL; MIC values against B.cereus ATCC (B. cereus): >100 µg/mL
